Data taken from publication PMC10726354, “Design, Synthesis, and Biological Evaluation of Small-Molecule-Based Radioligands with Improved Pharmacokinetic Properties for Imaging of Programmed Death Ligand 1” (Journal of Medicinal Chemistry, 2023).
Several values for one entry are separate records, joined by “and”; a condition that tells them apart may be missing. Equal values may be shown once.

Assays:
[1] = target: T1, PD-L1 (Homo sapiens, UniProt Q9NZQ7); assay: Saturation binding assay on live PC3 PD-L1 overexpressing cells
T1 construct: expressed in transfected cells; host or cells: PC3 cells (human prostate carcinoma), stably transduced
T1 sequence (Q9NZQ7 19-290): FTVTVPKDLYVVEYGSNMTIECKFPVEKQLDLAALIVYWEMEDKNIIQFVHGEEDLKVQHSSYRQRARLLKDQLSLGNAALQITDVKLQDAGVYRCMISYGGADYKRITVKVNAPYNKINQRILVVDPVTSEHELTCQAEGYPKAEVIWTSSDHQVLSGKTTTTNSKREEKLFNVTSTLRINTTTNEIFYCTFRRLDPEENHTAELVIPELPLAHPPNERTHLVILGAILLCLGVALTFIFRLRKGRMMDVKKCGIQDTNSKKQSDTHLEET
Description: For assessing the binding affinity of compounds [^64Cu]Cu-1–6, PC3 cells transduced with PD-L1 were used. Dissociation constants in equilibrium (KD) and maximum number of binding sites (Bmax) were determined in a saturation binding assay. The assays were performed with the addition of 2.5% bovine serum albumin (BSA) in the medium to prevent unspecific binding to plastic wells, as reported previously for our first radioligands.[1]
For saturation binding, cells were trypsinized (0.05% Trypsin–EDTA, Gibco, USA), counted, and diluted to ∼160,000 cells/mL. 0.25 mL of the cell solution was then added to each well of a 48-well plate (Falcon Multiwell #353078) and grown for at least 2 days.
To determine the affinity (KD) and the number of binding sites (Bmax) of the herein described PD-L1 small-molecule ligands, saturation binding was performed in at least three independent experiments, as described before.[45] Cells were brought to room temperature followed by cooling on ice (each 15 min). The medium was removed and replaced with 200 μL assay buffer [PBS + 2.5% (w/v) BSA] for total binding (TB) conditions or assay buffer containing 300 μM BMS-1166 (in DMSO, resulting in 0.03% v/v) for the assessment NSB. After 15 min preincubation, 200 μL of each of the eight serial 1:1 dilutions (500 to 3.91 nM) of the respective radioligand was added (in triplicate). Cells were then incubated for 90 min at 4 °C, washed (3 × 1 min), and lysed in 500 μL of 0.1 M NaOH + 1% SDS. Radioactivity of the lysate was measured and decay corrected to a reference time (end of radiolabeling). An additional plate was subjected to the same conditions (preincubation, incubation, and washing) using PBS without BSA for each experiment, and the protein content of these lysates was determined by BCA assay. From CPM measurements, final values (pmol/mg protein) were calculated using the mean protein content and molar activity.
Processed data were then subjected to nonlinear iterative curve fitting (GraphPad Prism 9) to yield Bmax (in pmol/mg protein) and KD (in nM).

[2] = target: T1, PD-L1; assay: Real-time radioligand binding (LigandTracer) on PC3 PD-L1 cells; settings: for fold change of real-time binding affinity in presence vs absence of BSA: in either direction; for Kd: real-time binding
Description: Real-time radioligand binding using the ligand tracer platform was performed, similar to our previously reported tracer candidates. As we aimed at reducing the albumin binding of the herein presented compounds, we performed measurements in the presence or absence of a mouse physiological concentration of BSA (2.5 g/dL).
For real-time binding to assess kinetics (association rate constant ka and dissociation rate constant kd) and dissociation constant (KD), LigandTracer (Yellow, Ridgeview Instruments AB, Sweden) was employed. Approximately 1.2 × 10^6 cells (in 3 mL medium) were seeded to one side of a Petri dish (Nunc) 1 day prior to experiments as described before.[45] Binding was then performed at room temperature (using CO2-independent medium, Gibco #18045088, Thermo Fisher Germany) with or without BSA (2.5%). First, association was determined by incubation with two concentrations (10 and 40 nM, 90 min each) of the ^64Cu-labeled PD-L1 ligands. Dissociation was then assessed by replacement with fresh medium for at least 2 h. Data were acquired in decay-corrected counts per second (CPS), and binding data were then evaluated using TraceDrawer (1.9.2, Ridgeview Instruments AB, Sweden). Traces were inspected for spikes and irregularities and then normalized to their own baseline (=0%) and highest value (=100%). Data were then fitted using a one-to-one interaction, accounting for the bulk effect.

[3] = Radiotracer production data: stability of the product to in vivo experiments; format: physicochemical
[4] = saturation binding, live PC3 PD-L1 overexpressing cells, 2.5% BSA, 90 min at 4 °C, mean ± SD, at least three experiments, read-out: KD
[5] = saturation binding, live PC3 PD-L1 overexpressing cells, 2.5% BSA, mean ± SD
[6] = medium only (no BSA), n = 2, mean ± S.D.
[7] = medium only (no BSA), n = 2, mean ± S.D., room temperature
[8] = supplementary CSV, read-out: KD [nM], saturation binding assay

| Compound | Kd [1, 4] | Bmax (maximum number of binding sites) [1, 5] | fold change of real-time binding affinity in presence vs absence of BSA [2] [fold] | Bmax [normalized (%)] ([2]; medium + 2.5% BSA, n = 1) [%] | ka (association rate constant) ([2]; medium + 2.5% BSA, n = 1) [M/s] | Bmax [normalized (%)] [2, 6] [%] | ka (association rate constant) [2, 7] | Kd ([2]; medium + 2.5% BSA, n = 1) [µM] | Kd [2, 6] | Stability of the product to in vivo experiments [3] [%] | Kd [1, 8] [nM] |
| --- | --- | --- | --- | --- | --- | --- | --- | --- | --- | --- | --- |
| Cc1c(COc2cc(OCc3cncc(C#N)c3)c(CN[C@@H](CS(=O)(=O)O)C(=O)NCCS(=O)(=O)O)cc2Cl)cccc1-c1cccc(OCc2cn(CCCN3CCN(C(=O)[C@H](CS(=O)(=O)O)NC(=O)CC[C@H](C(=O)O)N4CCN(CC(=O)O)CCN(CC(=O)O)CC4)CC3)nn2)c1C.[64Cu+2] [[^64Cu]Cu-1] | 80.5 ± 5.02 nM | 7.05 pmol·mg^–1 and 7.05 ± 0.99 pmol·mg^–1 | ≤ 2 | 76.2 | 1410 | 186 ± 40.2 | (2.85 ± 0.07) × 10^3 (M s)^−1 | 0.119 | 0.06 µM and 0.0602 µM | > 99 | – |
| Cc1c(COc2cc(OCc3cncc(S(C)(=O)=O)c3)c(CN[C@@H](CS(=O)(=O)O)C(=O)NCCS(=O)(=O)O)cc2Cl)cccc1-c1cccc(OCc2cn(CCCN3CCN(C(=O)[C@H](CS(=O)(=O)O)NC(=O)CC[C@H](C(=O)O)N4CCN(CC(=O)O)CCN(CC(=O)O)CC4)CC3)nn2)c1C.[64Cu+2] [[^64Cu]Cu-3] | 93.7 ± 10.8 nM | 8.51 ± 0.48 pmol·mg^–1 | – | 46.6 | 2970 | 95.9 ± 6.49 | (6.59 ± 0.50) × 10^3 (M s)^−1 | 0.0543 | 0.021 µM and 0.0209 µM | > 99 | – |
| Cc1c(COc2cc(OCc3cncc(S(C)(=O)=O)c3)c(CN[C@@H](CS(=O)(=O)O)C(=O)NCCP(=O)(O)O)cc2Cl)cccc1-c1cccc(OCc2cn(CCCN3CCN(C(=O)CC[C@H](C(=O)O)N4CCN(CC(=O)O)CCN(CC(=O)O)CC4)CC3)nn2)c1C.[64Cu+2] [[^64Cu]Cu-4] | 82.4 ± 7.42 nM | 10.7 pmol·mg^–1 and 10.7 ± 1.34 pmol·mg^–1 | – | 883 | 230 | 846 ± 451 | (0.56 ± 0.35) × 10^3 (M s)^−1 | 0.744 | 0.201 ± 0.149 µM | > 99 | 112 |
| Cc1c(COc2cc(OCc3cncc(S(C)(=O)=O)c3)c(CN[C@@H](CS(=O)(=O)O)C(=O)NCCP(=O)(O)O)cc2Cl)cccc1-c1cccc(OCc2cn(CCCN3CCN(C(=O)[C@H](CS(=O)(=O)O)NC(=O)CC[C@H](C(=O)O)N4CCN(CC(=O)O)CCN(CC(=O)O)CC4)CC3)nn2)c1C.[64Cu+2] [[^64Cu]Cu-5] | 112 ± 11 nM | 19.1 pmol·mg^–1 and 19.1 ± 0.67 pmol·mg^–1 | ≤ 2 | 219 | 1130 | 446 ± 274 | (1.14 ± 0.60) × 10^3 (M s)^−1 | 0.1 | 0.11 ± 0.053 µM | > 99 | 82.4 |
| Cc1c(COc2cc(OCc3cncc(S(C)(=O)=O)c3)c(CN[C@@H](CS(=O)(=O)O)C(=O)NCCP(=O)(O)O)cc2Cl)cccc1-c1cccc(OCc2cn(CCCN3CCN(C(=O)[C@H](CP(=O)(O)O)NC(=O)CC[C@H](C(=O)O)N4CCN(CC(=O)O)CCN(CC(=O)O)CC4)CC3)nn2)c1C.[64Cu+2] [[^64Cu]Cu-6] | 532 nM and 533 nM | 10.3 ± 0.74 pmol·mg^–1 | ≤ 2 | 65.3 | 3590 | 107 ± 7.16 | (5.30 ± 0.52) × 10^3 (M s)^−1 | 0.0414 | 0.022 µM and 0.0222 µM | > 99 | – |
